# Columns and labels:
# [1] = test system: rice flat sedge; assay: Test Example 3: herbicidal effect by foliage application, Wagner pot (Table 18, symbol E); format: in vivo, rice flat sedge (Cyperus iria)
# Outline: (§1)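 Plants were sown in alluvial soil held under 0.1–0.5 cm standing water and grown 14 days in a greenhouse at 25–30 °C. An emulsifiable formulation, water-diluted to the set dose, was then sprayed onto the foliage, and effects were scored three weeks later using previously defined criteria.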
# [2] = test system: oval-leafed pondweed; assay: Test Example 1: herbicidal activity, application before weed generation under submerged conditions (Table 16, symbol C); format: in vivo, oval-leafed pondweed (Monochoria vaginalis)
# Excerpt: (§2) [Test Example 1] Herbicidal Activity Test by Application before Weed Generation under Submerged Conditions After alluvial soil was placed into 1/10000 are of Wagner pot, water was poured and mixed to form a submerged condition having a water depth of 4 cm. Seeds of late watergrass, Japanese bulrush, and oval-leafed pondweed were sowed in a mixed manner in the aforementioned pot, and then 2.5 leaf stage rice plant seedlings were transplanted thereto. On the day of sowing seeds, the emulsion agent of the compound of the present invention prepared according to Formulation Example 2 was diluted with water so as to achieve a predetermined herbicide amount, and the diluted emulsion agent was applied to the surface of the water. The pot was placed in a greenhouse at 25° C. to 30° C. for growth of the plants. Three weeks after the herbicide application, the effect of the herbicide on each plant was evaluated according to the following criteria. Evaluation Criteria 5: Herbicidal rate of 90% or more (almost completely withered) 4: Herbicidal rate of 70% or more and less than 90% 3: Herbicidal rate of 40% or more and less than 70% 2: Herbicidal rate of 20% or more and less than 40% 1: Herbicidal rate of 5% or more and less than 20% 0: Herbicidal rate of 5% or less (almost no effect)
# [3] = test system: barnyard grass; assay: Test Example 3: herbicidal effect by foliage application, Wagner pot (Table 18, symbol H); format: in vivo, barnyard grass (Echinochloa crus-galli)
# Outline: as §1
# [4] = test system: late watergrass; assay: Test Example 1: herbicidal activity, application before weed generation under submerged conditions (Table 16, symbol A); format: in vivo, late watergrass (Echinochloa oryzicola)
# Excerpt: as §2
# [5] = test system: Chinese sprangletop; assay: Test Example 3: herbicidal effect by foliage application, Wagner pot (Table 18, symbol D); format: in vivo, chinese sprangletop (Leptochloa chinensis)
# Outline: as §1
# [6] = test system: Japanese bulrush; assay: Test Example 1: herbicidal activity, application before weed generation under submerged conditions (Table 16, symbol B); format: in vivo, Japanese bulrush (Schoenoplectus juncoides)
# Excerpt: as §2
# [7] = amount of applied herbicide 224 g/ha
# [8] = amount of applied herbicide 320 g/ha
# [9] = amount of applied herbicide 246 g/ha
compound,measurement,setting,value
Cc1nn(C)c(=O)c(-c2c(-c3cccc(OCC(F)(F)F)c3)sc3ccc(F)cc23)c1O [2-238],herbicidal effect on E: rice flat sedge,[1]; [7],3 (Herbicidal rate of 40% or more and less than 70%)
same,Herbicidal effect on C: oval-leafed pondweed (grade 0-5),[2]; 224 g/ha applied herbicide,0 (Herbicidal rate of 5% or less (almost no effect))
same,herbicidal effect on H: barnyard grass,[3]; [7],3 (Herbicidal rate of 40% or more and less than 70%)
same,Herbicidal effect on A: late watergrass (grade 0-5),[4]; 224 g/ha applied herbicide,3 (Herbicidal rate of 40% or more and less than 70%)
same,herbicidal effect on D: Chinese sprangletop,[5]; [7],2 (Herbicidal rate of 20% or more and less than 40%)
same,Herbicidal effect on B: Japanese bulrush (grade 0-5),[6]; 224 g/ha applied herbicide,0 (Herbicidal rate of 5% or less (almost no effect))
Cc1nn(C)c(=O)c(-c2c(-c3cc(C(F)(F)F)cc(C(F)(F)F)c3)sc3ccc(F)cc23)c1O [2-358],herbicidal effect on E: rice flat sedge,[1]; [8],3 (Herbicidal rate of 40% or more and less than 70%)
same,Herbicidal effect on C: oval-leafed pondweed (grade 0-5),[2]; 320 g/ha applied herbicide,0 (Herbicidal rate of 5% or less (almost no effect))
same,herbicidal effect on H: barnyard grass,[3]; [8],3 (Herbicidal rate of 40% or more and less than 70%)
same,Herbicidal effect on A: late watergrass (grade 0-5),[4]; 320 g/ha applied herbicide,3 (Herbicidal rate of 40% or more and less than 70%)
same,herbicidal effect on D: Chinese sprangletop,[5]; [8],1 (Herbicidal rate of 5% or more and less than 20%)
same,Herbicidal effect on B: Japanese bulrush (grade 0-5),[6]; 320 g/ha applied herbicide,0 (Herbicidal rate of 5% or less (almost no effect))
COc1cc(F)ccc1-c1sc2ccc(SC)cc2c1-c1c(O)c(C)nn(C)c1=O [2-376],herbicidal effect on E: rice flat sedge,[1]; [9],3 (Herbicidal rate of 40% or more and less than 70%)
same,Herbicidal effect on C: oval-leafed pondweed (grade 0-5),[2]; 246 g/ha applied herbicide,0 (Herbicidal rate of 5% or less (almost no effect))
same,herbicidal effect on H: barnyard grass,[3]; [9],5 (Herbicidal rate of 90% or more (almost completely withered))
same,Herbicidal effect on A: late watergrass (grade 0-5),[4]; 246 g/ha applied herbicide,3 (Herbicidal rate of 40% or more and less than 70%)
same,herbicidal effect on D: Chinese sprangletop,[5]; [9],3 (Herbicidal rate of 40% or more and less than 70%)
same,Herbicidal effect on B: Japanese bulrush (grade 0-5),[6]; 246 g/ha applied herbicide,0 (Herbicidal rate of 5% or less (almost no effect))

# From patent US20230085307A1, “PYRIDAZINONE COMPOUND AND HERBICIDE” (NISSAN CHEMICAL CORPORATION, priority 2019, published 2023)
